# In patent EP2666869A1 (priority 2012, dated 2013):
# Where “and” joins values, the source holds several entries; their conditions need not be identical. Equal values may be shown once. Read-outs that look alike come from different tables or passages of the source.
# Legend:
# [1] = Toxicity assessment (NCI-CTCAE grading) and risk factor analysis in the first month of sorafenib treatment; type: in vivo, human
# Source text: (§1) Adverse events were reported and graded according to the National Cancer Institute Common Terminology Criteria (NCI-CTCAE) on days 15 and 30 after treatment initiation. Diarrhea and HFSR were graded according to the NCI-CTCAE 3.0 version, while hypertension was retrospectively graded according to the 4.0 version. In case of grade 4 hematological toxicity or grade 3 or 4 non-hematological toxicity, treatment was discontinued until side effects recovered to grade 1, or returned to baseline. Subsequent dose reductions were left at the discretion of the treating physician.
# (§2) For descriptive statistics, qualitative variables were expressed in numbers and percentages and quantitative ones in medians [inter-quartile intervals]. Glomerular filtration rate (GFR) and lean body mass (LBM) were estimated using the Modification of the Diet in Renal Disease (MDRD) formula and the Green's formula, respectively. […] Then, the relationships between the dose-standardized AUC and other variables were tested using two-sample Wilcoxon tests or Kruskal-Wallis tests for qualitative variables with two modalities or more than two modalities, respectively, and by Spearman rank correlation coefficient tests for quantitative ones. The following variables were tested: age, gender, ECOG status, weight, body mass index (BMI), LBM, primary tumor site, polymorphisms of CYP3A5 (rs776746), UGT1A9 (rsl78868320, rs6714486, rs72551330), ABCB1 (rs2231137, rs1045642), ABCG2 (rs2231137, rs2231142, rs2622604), alanine aminotransferase (ALT), aspartate aminotransferase (AST), alkaline phosphatase (ALP), gamma-glutamyl transpeptidase (GGT), bilirubin, albumin, C-Reactive Protein, creatinine and MDRD GFR. A stepwise multiple linear regression was then performed with variables significant with p < 0.10 in the first step included in the regression and variables significant with p < 0.05 kept in the final model. For the analysis of sorafenib-induced toxicities in the first month of treatment, we used dichotomous end points expressed as any toxicity ≥ grade 3 (yes or no), or grade ≥ 2 HFSR (yes or no), or grade ≥ 2 diarrhea (yes or no), or grade ≥ 2 hypertension (yes or no). The cumulated AUC between day 0 and day 30 was calculated as the sum of two areas, (0-15 days) and (15-30 days) which were estimated using the trapezoidal rule. The area was multiplied by 24 to express the result in mg/L.h. […] On day 0, Cav0 was fixed at 0 mg/L.
# The univariate analysis of toxicity risk factors was carried out using two sample Wilcoxon tests for quantitative variables and Chi square or Fisher exact tests for qualitative ones. Fisher exact tests were performed as soon as at least one expected value was lower than 5. […] The multivariate analysis was performed by a stepwise logistic regression. Variables with p-values < 0.10 in the univariate analysis were included in the regression and variables with a Wald test p-value < 0.05 were kept in the final model. All the tests were two-sided, and they were considered significant when p-values were < 0.05. The receiver operating characteristic (ROC) curve was constructed to examine the value of an AUCcum threshold predicting a toxicity of grade ≥ 3 in the first month of treatment. The diagnostic accuracy values of sensitivity and specificity were determined, as well as the positive predictive value (PPV) and the negative predictive value (NPV). Computations were performed using the SAS V9 statistical package (SAS institute, Cary, NC).
# [2] = Sorafenib pharmacokinetic analysis (plasma concentrations, Bayesian estimation of AUC and Cav); type: in vivo, human; conditions: for AUC at 720 h: Cumulated sorafenib AUC, day 0 to day 30; for AUC tau at 720 h: day 30
# Source text: as §1
# This Bayesian estimator is based on a 1-compartment model with saturated absorption, first-order intestinal loss and linear elimination.
# as §2, with “For the analysis of sorafenib-induced toxicities in the first month of treatment, we used dichotomous end points expressed as any toxicity ≥ grade 3 (yes or no), or grade ≥ 2 HFSR (yes or no), or grade ≥ 2 diarrhea (yes or no), or grade ≥ 2 hypertension (yes or no).” left out
# [3] = AUCcum threshold value of 3,161 mg/L.h, toxicity of grade ≥ 3
smiles,measurement,setting,value
CNC(=O)c1cc(Oc2ccc(NC(=O)Nc3ccc(Cl)c(C(F)(F)F)c3)cc2)ccn1 [sorafenib],NPV,[1]; [3],63.3%
same,PPV,[1]; [3],75.8%
same,area under the ROC curve for the AUCcum threshold,"[1]; CI 95%, 61-78%",69%
same,Any toxicity ≥ grade 3: No,[1]; CYP3A5 6986 A>G AA (*1/*1),0 (0) n (%)
same,Any toxicity ≥ grade 3: Yes,[1]; CYP3A5 6986 A>G AA (*1/*1),4 (100) n (%)
same,Any toxicity ≥ grade 3: No,[1]; CYP3A5 6986 A>G AG (*1/*3),6 (67) n (%)
same,Any toxicity ≥ grade 3: Yes,[1]; CYP3A5 6986 A>G AG (*1/*3),3 (33) n (%)
same,Any toxicity ≥ grade 3: No,[1]; CYP3A5 6986 A>G GG (*3/*3),24 (63) n (%)
same,Any toxicity ≥ grade 3: Yes,[1]; CYP3A5 6986 A>G GG (*3/*3),14 (37) n (%)
same,Any toxicity ≥ grade 3: No,[1]; Female,5 (33.3) n (%)
same,Any toxicity ≥ grade 3: Yes,[1]; Female,10 (66.7) n (%)
same,Hand Foot Skin Reaction ≥ grade 2: No,[1]; Female,5 (33.3) n (%)
same,Hand Foot Skin Reaction ≥ grade 2: Yes,[1]; Female,10 (66.7) n (%)
same,Any toxicity ≥ grade 3: No,[1]; Male,25 (67.6) n (%)
same,Any toxicity ≥ grade 3: Yes,[1]; Male,12 (32.4) n (%)
same,Hand Foot Skin Reaction ≥ grade 2: No,[1]; Male,25 (52.0) n (%)
same,Hand Foot Skin Reaction ≥ grade 2: Yes,[1]; Male,12 (48.0) n (%)
same,Occurrence during first month of treatment: Diarrhea,[1]; No,37 (69) n (%)
same,Occurrence during first month of treatment: Hypertension,[1]; No,28 (52) n (%)
same,Occurrence during first month of treatment: Hand-foot skin reaction,"[1]; No, 54 patients",17 (31) n (%)
same,AUCcum threshold predicting a toxicity of grade ≥ 3,"[1]; ROC curve, first month of treatment","3,161 mg/L.h"
same,Diarrhea ≥ grade 2: No,[1]; UGT1A9 -275 T>A m/m,0 (0) n (%)
same,Diarrhea ≥ grade 2: Yes,[1]; UGT1A9 -275 T>A m/m,0 (0) n (%)
same,Diarrhea ≥ grade 2: No,[1]; UGT1A9 -275 T>A wt/m,2 (50) n (%)
same,Diarrhea ≥ grade 2: Yes,[1]; UGT1A9 -275 T>A wt/m,2 (50) n (%)
same,Diarrhea ≥ grade 2: No,[1]; UGT1A9 -275 T>A wt/wt,43 (93) n (%)
same,Diarrhea ≥ grade 2: Yes,[1]; UGT1A9 -275 T>A wt/wt,3 (7) n (%)
same,Diarrhea ≥ grade 2: No,[1]; UGT1A9 -2152 C>T m/m,0 (0) n (%)
same,Diarrhea ≥ grade 2: Yes,[1]; UGT1A9 -2152 C>T m/m,0 (0) n (%)
same,Diarrhea ≥ grade 2: No,[1]; UGT1A9 -2152 C>T wt/m,2 (50) n (%)
same,Diarrhea ≥ grade 2: Yes,[1]; UGT1A9 -2152 C>T wt/m,2 (50) n (%)
same,Diarrhea ≥ grade 2: No,[1]; UGT1A9 -2152 C>T wt/wt,42 (93) n (%)
same,Diarrhea ≥ grade 2: Yes,[1]; UGT1A9 -2152 C>T wt/wt,3 (7) n (%)
same,Occurrence during first month of treatment: Diarrhea,[1]; Yes,17 (31) n (%)
same,Occurrence during first month of treatment: Hypertension,[1]; Yes,25 (46) n (%)
same,Occurrence during first month of treatment: Hand-foot skin reaction,"[1]; Yes, 54 patients",37 (69) n (%)
same,Occurrence during first month of treatment: Diarrhea,[1]; grade < 2,12 n (%)
same,Occurrence during first month of treatment: Hand-foot skin reaction,[1]; grade < 2,15 n (%)
same,Occurrence during first month of treatment: Hypertension,[1]; grade < 2,5 n (%)
same,Occurrence during first month of treatment: Diarrhea,[1]; grade ≥ 2 (grade 2-3),5 (9%) n (%) and 5 n (%)
same,Occurrence during first month of treatment: Hand-foot skin reaction,[1]; grade ≥ 2 (grade 2-3),22 (41%) n (%) and 22 n (%)
same,Occurrence during first month of treatment: Hypertension,[1]; grade ≥ 2 (grade 2-3),20 (38%) n (%) and 20 n (%)
same,grade 3 or 4 toxicity: diarrhea,"[1]; on days 15 or 30, 5% of the 22 patients with grade 3 or 4 toxicity",1 n
same,grade 3 or 4 toxicity: hypertension,"[1]; on days 15 or 30, 27% of the 22 patients with grade 3 or 4 toxicity",6 n
same,grade 3 or 4 toxicity: HFSR,"[1]; on days 15 or 30, 68% of the 22 patients with grade 3 or 4 toxicity",15 n
same,patients who experienced grade 3 or 4 toxicity,"[1]; on days 15 or 30, twenty-two of 54 patients",41%
same,patients who required dose reductions because of toxic effects,[1]; over the study period,9 n
same,patients who required interruption of treatment because of toxic effects,[1]; over the study period,10 n
same,patients who required dose reductions or interruption of treatment because of toxic effects,"[1]; over the study period, nineteen patients",35%
same,toxic death in relation with sorafenib,[1]; study period,no toxic death
same,Spearman's coefficient (rho),[2]; dose-normalized AUC day 15 versus Creatinine (µmol/L),-0.26
same,Spearman's coefficient (rho),[2]; dose-normalized AUC day 15 versus LBM (kg),-0.28
same,AUC at 720 h,"[2]; human, plasma, patients with Hand Foot Skin Reaction ≥ grade 2, median [interquartile range]",3310 µg·h/mL
same,AUC at 720 h,"[2]; human, plasma, patients with any toxicity ≥ grade 3, median [interquartile range]",3500 µg·h/mL
same,AUC at 720 h,"[2]; human, plasma, patients without Hand Foot Skin Reaction ≥ grade 2, median [interquartile range]",2250 µg·h/mL
same,AUC at 720 h,"[2]; human, plasma, patients without any toxicity ≥ grade 3, median [interquartile range]",2250 µg·h/mL
same,AUC tau at 360 h,"[2]; human, plasma, day 15, females, read-out: median absolute AUC",78.3 µg·h/mL
same,AUC tau at 360 h,"[2]; human, plasma, day 15, males, read-out: median absolute AUC",52.4 µg·h/mL
same,AUC tau at 720 h,"[2]; human, plasma, females, read-out: median absolute AUC",82.2 µg·h/mL
same,AUC tau at 720 h,"[2]; human, plasma, males, read-out: median absolute AUC",55.2 µg·h/mL
same,AUC tau at 12 h,"[2]; human, plasma, median absolute sorafenib AUC, day 15, all patients, AUC 0 to 12 hours, median [interquartile range]",62 µg·h/mL
same,AUC tau at 720 h,"[2]; human, plasma, median absolute sorafenib AUC, all patients, median [interquartile range]",61 µg·h/mL
